Test results: ChEMBL document CHEMBL3611979, “Design, synthesis and biological characterization of selective LIMK inhibitors” (Bioorg Med Chem Lett, 2015)

Legend:
LIM domain kinase 2 = LIM domain kinase 2 (Homo sapiens, UniProt P53671); assay: Inhibition of LIMK2 (unknown origin) by radiometric assay
[1] = biological target: Rho-associated protein kinase 2 (Homo sapiens, UniProt O75116); assay: Inhibition of ROCK2 (unknown origin) by radiometric assay
LIM domain kinase 1 = LIM domain kinase 1 (Homo sapiens, UniProt P53667); assay: Inhibition of LIMK1 (unknown origin) by radiometric assay
Sequence of LIM domain kinase 1 (P53667 whole entry, the tested form may be a part): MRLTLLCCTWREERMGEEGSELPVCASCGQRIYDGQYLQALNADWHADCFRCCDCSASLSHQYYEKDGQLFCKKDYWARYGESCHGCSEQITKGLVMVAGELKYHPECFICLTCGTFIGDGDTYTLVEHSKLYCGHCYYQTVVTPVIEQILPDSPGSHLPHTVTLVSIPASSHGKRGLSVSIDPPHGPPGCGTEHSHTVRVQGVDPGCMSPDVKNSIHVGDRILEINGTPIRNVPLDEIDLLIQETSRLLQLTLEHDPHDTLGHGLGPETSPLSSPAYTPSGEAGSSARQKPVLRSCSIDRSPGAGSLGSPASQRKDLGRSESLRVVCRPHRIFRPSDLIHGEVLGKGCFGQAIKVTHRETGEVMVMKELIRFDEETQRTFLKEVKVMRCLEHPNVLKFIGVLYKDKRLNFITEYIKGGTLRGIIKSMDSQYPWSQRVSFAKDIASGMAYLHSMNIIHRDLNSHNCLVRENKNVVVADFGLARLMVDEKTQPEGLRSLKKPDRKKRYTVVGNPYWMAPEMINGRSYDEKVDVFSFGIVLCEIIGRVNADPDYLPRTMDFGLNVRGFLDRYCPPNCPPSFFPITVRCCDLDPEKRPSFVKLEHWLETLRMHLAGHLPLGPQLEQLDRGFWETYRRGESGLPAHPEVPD

[2] = biological target: cAMP-dependent protein kinase (PKA) (Homo sapiens, UniProt P22694+P17612+P22612); assay: Inhibition of PKA (unknown origin) by radiometric assay; assay type: protein assay
[3] = Inhibition of ROCK in rat A7r5 cells assessed as reduction in MLC Thr18/Ser19 phosphorylation by direct-ELISA method; assay type: cell-based
[4] = biological target: RAC-alpha serine/threonine-protein kinase (Homo sapiens, UniProt P31749); assay: Inhibition of AKT1 (unknown origin) by radiometric assay
Sequence of RAC-alpha serine/threonine-protein kinase (P31749 whole entry): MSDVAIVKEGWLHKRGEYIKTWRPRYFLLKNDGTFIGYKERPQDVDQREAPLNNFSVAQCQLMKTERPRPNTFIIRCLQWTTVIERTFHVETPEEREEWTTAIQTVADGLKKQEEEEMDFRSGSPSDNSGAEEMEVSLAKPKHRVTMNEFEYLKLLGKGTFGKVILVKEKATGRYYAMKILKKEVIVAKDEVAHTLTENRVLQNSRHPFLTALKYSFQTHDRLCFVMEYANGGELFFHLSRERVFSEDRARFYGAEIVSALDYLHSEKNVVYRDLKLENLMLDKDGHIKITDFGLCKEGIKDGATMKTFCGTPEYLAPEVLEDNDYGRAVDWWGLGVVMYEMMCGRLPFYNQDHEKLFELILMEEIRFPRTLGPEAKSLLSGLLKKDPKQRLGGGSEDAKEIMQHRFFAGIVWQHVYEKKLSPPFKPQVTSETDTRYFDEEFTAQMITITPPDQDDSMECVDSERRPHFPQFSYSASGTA

[5] = Inhibition of LIMK in human HeLa cells assessed as reduction in cofilin Ser3 phosphorylation by sandwich immunoassay; assay type: cell-based
Oryctolagus cuniculus = assay: Toxicity in ocular normotensive New Zealand White rabbit assessed as induction of conjunctival hyperemia at 200 µg/eye drop dosed as single topical administration measured 1 to 6 hrs post compound instillation; assay type: organism-based, Conjunctiva; details: in vivo, topical_or_ocular

Sequence of LIM domain kinase 2 (P53671 whole entry, the tested form may be a part): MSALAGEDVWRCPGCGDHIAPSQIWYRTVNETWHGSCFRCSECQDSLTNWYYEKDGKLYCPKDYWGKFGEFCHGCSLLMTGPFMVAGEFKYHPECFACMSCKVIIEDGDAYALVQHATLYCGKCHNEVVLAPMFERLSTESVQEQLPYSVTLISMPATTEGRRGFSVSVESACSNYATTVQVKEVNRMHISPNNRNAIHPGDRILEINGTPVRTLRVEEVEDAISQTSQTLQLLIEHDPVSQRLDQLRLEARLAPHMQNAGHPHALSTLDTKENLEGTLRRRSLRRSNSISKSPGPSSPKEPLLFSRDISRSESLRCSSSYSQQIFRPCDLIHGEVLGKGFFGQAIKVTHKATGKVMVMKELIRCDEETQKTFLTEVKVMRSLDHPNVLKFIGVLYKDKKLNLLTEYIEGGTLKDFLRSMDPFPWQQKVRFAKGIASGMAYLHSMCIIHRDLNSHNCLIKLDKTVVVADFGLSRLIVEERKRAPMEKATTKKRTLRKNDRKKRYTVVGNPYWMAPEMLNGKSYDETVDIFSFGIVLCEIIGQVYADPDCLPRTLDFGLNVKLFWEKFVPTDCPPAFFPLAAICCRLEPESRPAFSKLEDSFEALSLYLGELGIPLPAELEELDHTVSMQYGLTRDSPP
Sequence of Rho-associated protein kinase 2 (O75116 whole entry, the tested form may be a part): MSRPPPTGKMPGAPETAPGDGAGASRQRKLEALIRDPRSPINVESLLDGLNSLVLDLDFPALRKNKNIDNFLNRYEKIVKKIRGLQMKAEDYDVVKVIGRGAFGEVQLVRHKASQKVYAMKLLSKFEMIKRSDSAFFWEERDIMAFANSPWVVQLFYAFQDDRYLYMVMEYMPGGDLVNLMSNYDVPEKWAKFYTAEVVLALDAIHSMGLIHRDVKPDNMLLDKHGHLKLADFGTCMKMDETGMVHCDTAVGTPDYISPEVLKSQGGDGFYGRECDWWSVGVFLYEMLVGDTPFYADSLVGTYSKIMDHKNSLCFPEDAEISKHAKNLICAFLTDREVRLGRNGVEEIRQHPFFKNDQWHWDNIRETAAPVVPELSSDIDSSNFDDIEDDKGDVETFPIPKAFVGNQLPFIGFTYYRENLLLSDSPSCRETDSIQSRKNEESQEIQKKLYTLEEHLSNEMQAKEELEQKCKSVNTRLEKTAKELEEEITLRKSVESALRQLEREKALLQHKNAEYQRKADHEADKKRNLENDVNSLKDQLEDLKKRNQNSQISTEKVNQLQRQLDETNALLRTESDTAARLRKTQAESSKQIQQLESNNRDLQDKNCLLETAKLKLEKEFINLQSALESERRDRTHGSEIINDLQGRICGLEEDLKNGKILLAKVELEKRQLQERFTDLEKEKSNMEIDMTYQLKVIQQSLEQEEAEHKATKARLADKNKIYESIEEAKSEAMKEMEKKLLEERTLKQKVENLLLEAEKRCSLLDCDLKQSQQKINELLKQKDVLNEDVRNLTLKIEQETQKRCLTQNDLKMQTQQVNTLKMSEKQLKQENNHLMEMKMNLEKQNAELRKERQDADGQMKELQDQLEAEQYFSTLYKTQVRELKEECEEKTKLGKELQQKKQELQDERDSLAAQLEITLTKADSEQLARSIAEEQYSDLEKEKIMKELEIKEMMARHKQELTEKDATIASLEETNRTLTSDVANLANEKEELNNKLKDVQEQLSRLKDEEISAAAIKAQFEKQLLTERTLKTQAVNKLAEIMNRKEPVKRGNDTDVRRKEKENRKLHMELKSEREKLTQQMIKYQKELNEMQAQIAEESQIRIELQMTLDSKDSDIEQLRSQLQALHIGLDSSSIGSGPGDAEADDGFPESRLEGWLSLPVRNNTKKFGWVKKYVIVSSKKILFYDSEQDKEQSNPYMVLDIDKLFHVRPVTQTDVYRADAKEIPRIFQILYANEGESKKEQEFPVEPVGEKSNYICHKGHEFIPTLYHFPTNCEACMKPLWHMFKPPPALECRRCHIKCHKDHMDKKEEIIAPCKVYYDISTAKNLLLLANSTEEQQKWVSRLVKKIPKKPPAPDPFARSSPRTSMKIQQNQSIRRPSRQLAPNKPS

Compound | IC50 (LIM domain kinase 2) [nM] | IC50 [1] [nM] | IC50 (LIM domain kinase 1) [nM] | IC50 [2] [nM] | EC50 [3] [nM] | IC50 [4] [nM] | EC50 [5] [nM] | Activity (Oryctolagus cuniculus)
COC(=O)c1cccc(NC(=O)C2(CN)CCN(c3ncnc4[nH]cc(C)c34)CC2)c1 | < 1 | < 1 | 16 | < 1 | – | – | – | –
Cc1c[nH]c2ncnc(N3CCC(CN(C)C)(C(=O)Nc4cccc(OC(=O)N(C)C)c4)CC3)c12 | < 1 | 40 | 19 | 2.6 | – | – | – | –
COC(=O)c1cccc(NC(=O)C2(CN(C)C)CCN(c3ncnc4[nH]cc(C)c34)CC2)c1 | 1.5 | 8.9 | 27 | 24 | – | – | – | –
COC(=O)c1cccc(NC(=O)C2(N)CCN(c3ncnc4[nH]cc(C)c34)CC2)c1 | 7.4 | 100 | 18 | 81 | – | – | – | –
COC(=O)c1cccc(NC(=O)C2(N(C)C)CCN(c3ncnc4[nH]cc(C)c34)CC2)c1 | 12 | 63 | 37 | 150 | – | – | – | –
COC(=O)COc1cccc(NC(=O)C2(CN(C)C)CCN(c3ncnc4[nH]cc(C)c34)CC2)c1 | < 1 | 7.9 | 38 | 5.4 | – | – | – | –
COC(=O)Cc1cccc(NC(=O)C2(CN(C)C)CCN(c3ncnc4[nH]cc(C)c34)CC2)c1 | < 1 | 56 | 57 | 7 | – | – | – | –
COC(=O)c1ccc(NC(=O)C2(CN(C)C)CCN(c3ncnc4[nH]cc(C)c34)CC2)cc1 | 7.7 | 7.2 | 41 | 2.7 | – | – | – | –
CCCOC(=O)c1cccc(NC(=O)C2(CN(C)C)CCN(c3ncnc4[nH]cc(C)c34)CC2)c1 | 2.1 | 41 | 50 | 5.8 | – | – | – | –
Cc1c[nH]c2ncnc(N3CCC(CN(C)C)(C(=O)Nc4cccc(C(=O)OC(C)C)c4)CC3)c12 | 2.2 | 53 | 41 | 22 | – | – | – | –
CCC(C)OC(=O)c1cccc(NC(=O)C2(CN(C)C)CCN(c3ncnc4[nH]cc(C)c34)CC2)c1 (stereo not given) | 4.6 | 137 | 50 | 24 | – | – | – | –
C#CCOC(=O)c1cccc(NC(=O)C2(CN(C)C)CCN(c3ncnc4[nH]cc(C)c34)CC2)c1 | < 1 | 16 | 7.6 | 2.2 | – | – | – | –
COC(=O)c1cccc(NC(=O)C2(CN(C)C)CCN(c3ncnc4[nH]ccc34)CC2)c1 | 13 | 1.8 | 23 | 1.1 | – | – | – | –
COC(=O)c1cccc(NC(=O)C2(CN(C)C)CCN(c3ncnc4[nH]ncc34)CC2)c1 | 193 | 62 | 282 | 5.1 | – | – | – | –
COC(=O)c1cccc(NC(=O)C2(CN(C)C)CCN(c3ccnc4[nH]ncc34)CC2)c1 | 274 | 11 | 65 | 3.8 | – | – | – | –
COC(=O)c1cccc(NC(=O)C2(CN(C)C)CCN(c3ncnc4c3CC(=O)N4)CC2)c1 | 1860 | > 10000 | 1000 | 1130 | – | – | – | –
COC(=O)c1cccc(NC(=O)C2(N)CCN(c3ncnc4[nH]ccc34)CC2)c1 | 9.6 | 67 | 31 | 69 | – | – | – | –
COC(=O)c1cccc(NC(=O)C2(N)CCN(c3ccncn3)CC2)c1 | > 10000 | > 1000 | > 1000 | > 1000 | – | – | – | –
COC(=O)c1cccc(NC(=O)C2(N)CCN(c3cc(N)ncn3)CC2)c1 | 4560 | 2060 | 945 | > 1000 | – | – | – | –
COC(=O)c1cccc(NC(=O)C2(N)CCN(c3ccnc(N)n3)CC2)c1 | > 10000 | 416 | > 1000 | > 1000 | – | – | – | –
COC(=O)c1cccc(NC(=O)C2(N)CCN(c3cc(NC(C)=O)ncn3)CC2)c1 | 494 | > 1000 | 239 | > 1000 | – | – | – | –
COC(=O)c1cccc(NC(=O)C2(N)CCN(c3ccnc(NC(C)=O)n3)CC2)c1 | > 10000 | > 1000 | > 10000 | > 1000 | – | – | – | –
COC(=O)c1cccc(NC(=O)C2(CN(C)C)CCN(c3ncnc4[nH]cc(C#N)c34)CC2)c1 | 4 | 2.5 | 25 | < 1 | – | – | – | –
COC(=O)c1cccc(NC(=O)C2(CN(C)C)CCN(c3ncnc4[nH]cc(F)c34)CC2)c1 | 2.8 | 5.7 | 20 | < 1 | – | – | – | –
COC(=O)c1cccc(NC(=O)C2(CN(C)C)CCN(c3ncnc4[nH]c(C)cc34)CC2)c1 | 8 | 652 | 23 | 332 | – | – | – | –
COC(=O)c1cccc(NC(=O)C2(CN(C)C)CCN(c3ncnc4[nH]c(C)c(C)c34)CC2)c1 | 1.6 | > 1000 | 26 | > 1000 | > 10000 | > 1000 | – | –
Cc1[nH]c2ncnc(N3CCC(CN(C)C)(C(=O)Nc4cccc(OC(=O)N(C)C)c4)CC3)c2c1C | 1.4 | > 1000 | 22 | > 1000 | > 10000 | > 1000 | 9 | –
Cc1c[nH]c2ncnc(N3CCC(CN)(C(=O)Nc4cccc(OC(=O)N(C)C)c4)CC3)c12 [LX-7101] | 1.6 | 10 | – | < 1 | 2300 | < 1 | 8.7 | Toxic
